Reference: the NIST ThermoML archive (doi:10.1016/j.fluid.2006.05.032)

Settings: Liquid, Vibrating tube method

CCCO [propan-1-ol]
mass density [kg/m3]
Settings | 293.15 K | 303.15 K | 313.15 K | 323.15 K | 333.15 K | 343.15 K | 353.15 K
100 kPa | 803.5 | 795.2 | 787.6 | 779.3 | 770.5 | 761 | 752.2
5000 kPa | 807.3 | 799.2 | 791.9 | 783.7 | 775.4 | 766 | 757.6
10000 kPa | 810.9 | 802.9 | 795.9 | 788 | 780 | 770.7 | 762.7
15000 kPa | 814.3 | 806.7 | 799.7 | 792 | 784.3 | 775.3 | 767.6
20000 kPa | 817.7 | 810.1 | 803.3 | 795.8 | 788.4 | 779.6 | 772.1
25000 kPa | 821 | 813.6 | 806.8 | 799.7 | 792 | 783.7 | 776.3
30000 kPa | 824 | 816.7 | 810.2 | 803.2 | 795.7 | 787.6 | 780.4
35000 kPa | 827 | 819.8 | 813.5 | 806.6 | 799.2 | 791.2 | 784.1
40000 kPa | 829.9 | 822.9 | 816.6 | 809.9 | 802.6 | 794.7 | 787.7
45000 kPa | 832.7 | 825.8 | 819.7 | 813 | 805.9 | 798.3 | 791.8
50000 kPa | 835.4 | 828.8 | 822.7 | 816.1 | 809.1 | 801.6 | 795.1
55000 kPa | 838.1 | 831.6 | 825.5 | 819 | 812.3 | 804.6 | 798.5
60000 kPa | 840.7 | 834.2 | 828.3 | 821.8 | 815.2 | 807.7 | 801.7
65000 kPa | 843.2 | 837 | 831 | 824.6 | 818.1 | 810.6 | 805

Cc1ccccc1 [toluene]
mass density [kg/m3]
Settings | 293.15 K | 303.15 K | 313.15 K | 323.15 K | 333.15 K | 343.15 K | 353.15 K
100 kPa | 867.1 | 857.5 | 847.8 | 838.4 | 828.8 | 819.4 | 809.7
5000 kPa | 870.6 | 861.4 | 852 | 842.7 | 833.5 | 824.5 | 815.1
10000 kPa | 874.2 | 865.1 | 856.1 | 847 | 838.2 | 829.3 | 820.3
15000 kPa | 877.6 | 869 | 859.9 | 851.1 | 842.6 | 833.9 | 825.3
20000 kPa | 881.1 | 872.4 | 863.5 | 855 | 846.6 | 838.1 | 829.9
25000 kPa | 884.2 | 875.8 | 867.1 | 858.9 | 850.5 | 842.3 | 834
30000 kPa | 887.3 | 879 | 870.5 | 862.5 | 854.3 | 846.2 | 838.2
35000 kPa | 890.3 | 882.1 | 873.8 | 866 | 857.9 | 850.1 | 842.2
40000 kPa | 893.3 | 885.2 | 877 | 869.4 | 861.4 | 853.7 | 846.1
45000 kPa | 896.1 | 888.2 | 880.2 | 872.5 | 864.8 | 857.4 | 849.8
50000 kPa | 898.9 | 891.1 | 883.3 | 875.7 | 868.1 | 860.8 | 853.3
55000 kPa | 901.6 | 894 | 886.2 | 878.7 | 871.4 | 864.2 | 856.7
60000 kPa | 904.2 | 896.7 | 889 | 881.7 | 874.5 | 867.4 | 860.1
65000 kPa | 906.7 | 899.2 | 891.8 | 884.6 | 877.5 | 870.3 | 863.5
